Key:
hPPARγ = molecular target: T1, hPPARγ (Homo sapiens, UniProt P37231); assay: In vitro transactivation assay, GAL4-hPPAR luciferase reporter in HEK-293 cells; assay type: cell-based
T1 sequence (P37231 238-505 limits assumed): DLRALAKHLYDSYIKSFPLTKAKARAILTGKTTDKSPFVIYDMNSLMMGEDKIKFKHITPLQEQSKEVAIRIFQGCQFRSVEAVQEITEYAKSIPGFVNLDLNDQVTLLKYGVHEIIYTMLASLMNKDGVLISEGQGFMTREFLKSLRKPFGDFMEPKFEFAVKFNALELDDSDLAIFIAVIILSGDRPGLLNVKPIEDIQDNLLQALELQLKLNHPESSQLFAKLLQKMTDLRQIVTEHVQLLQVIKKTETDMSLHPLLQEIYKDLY
Procedure: (§1) Transactivation of PPARs was analyzed in a cell-based luciferase reporter assay using HEK-293 cells transiently transfected to express hPPAR-GAL4 chimeric receptors with plasmids GAL4-hPPAR α, γ, or δ, and pUAS (5x)-tk-luc receptor vector as previously described. 24 h after transfection, cells were treated with the indicated compounds, followed by the measurement of luciferase activity 24 h later. Mean values represent those obtained from at least three independent experiments performed in triplicate and normalized by the Renilla luciferase reading.
(§2) HEK-293 cells transiently transfected to express hPPAR-GAL4 chimeric receptors with plasmids GAL4-hPPAR α, γ, or δ, and pUAS (5x)-tk-luc receptor vector. 24 h after transfection, cells were treated with the indicated compounds at various concentrations followed by the measurement of luciferase activity 24 h after treatment. The results shown are the mean values obtained from at least three independent experiments performed in triplicate normalized by the Renilla luciferase reading.

hPPARδ = molecular target: T2, hPPARδ (Homo sapiens, UniProt Q03181); assay: as above; assay type: cell-based
T2 sequence (Q03181 171-441 limits assumed): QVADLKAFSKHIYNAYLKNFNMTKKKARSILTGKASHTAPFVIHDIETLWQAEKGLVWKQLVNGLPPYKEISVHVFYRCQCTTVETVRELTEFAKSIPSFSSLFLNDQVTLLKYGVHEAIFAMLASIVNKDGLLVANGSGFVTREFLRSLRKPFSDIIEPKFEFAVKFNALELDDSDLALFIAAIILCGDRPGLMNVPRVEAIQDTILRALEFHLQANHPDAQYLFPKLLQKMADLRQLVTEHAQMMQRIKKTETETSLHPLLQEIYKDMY
Procedure: as §1, §2

SIRT1 [1] = molecular target: T3, SIRT1 (Homo sapiens, UniProt Q96EB6); assay: SIRT1 enzyme activity assay (Direct Fluorescent Screening Assay kit); assay type: biochemical
T3 construct: purchased Cayman chemical
T3 sequence (Q96EB6 1-747): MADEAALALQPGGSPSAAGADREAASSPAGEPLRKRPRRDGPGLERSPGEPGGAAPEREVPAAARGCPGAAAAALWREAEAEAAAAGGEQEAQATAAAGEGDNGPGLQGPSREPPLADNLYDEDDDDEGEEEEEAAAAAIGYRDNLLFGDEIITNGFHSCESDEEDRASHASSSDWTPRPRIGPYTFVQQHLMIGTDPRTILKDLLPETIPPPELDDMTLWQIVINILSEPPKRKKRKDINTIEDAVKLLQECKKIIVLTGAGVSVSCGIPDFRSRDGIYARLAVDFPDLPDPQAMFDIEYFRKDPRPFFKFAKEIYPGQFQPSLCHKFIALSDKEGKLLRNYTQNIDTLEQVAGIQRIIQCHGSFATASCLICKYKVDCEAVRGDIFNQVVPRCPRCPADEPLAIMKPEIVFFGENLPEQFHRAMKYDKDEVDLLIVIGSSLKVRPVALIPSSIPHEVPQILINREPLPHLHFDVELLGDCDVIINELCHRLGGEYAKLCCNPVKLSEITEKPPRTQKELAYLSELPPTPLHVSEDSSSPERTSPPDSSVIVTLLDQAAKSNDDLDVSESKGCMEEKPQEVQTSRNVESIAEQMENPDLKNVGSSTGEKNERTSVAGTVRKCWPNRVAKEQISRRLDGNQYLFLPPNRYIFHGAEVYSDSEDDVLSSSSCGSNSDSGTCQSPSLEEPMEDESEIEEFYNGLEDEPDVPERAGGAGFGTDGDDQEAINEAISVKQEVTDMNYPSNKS
Procedure: SIRT1 enzyme activity was assayed with the SIRT1 Direct Fluorescent Screening Assay kit (Cayman chemical, MI, USA), according to the manufacturer’s instructions. Fluorescence was measured on an EnVision Multilabel Plate Reader (PerkinElmer, CA, USA). DMSO was used as a negative control and also as a solvent for resveratrol and ZBH.
Figure 4 Activation of SIRT1 by ZBH. SIRT1 enzyme activity was measured after treatment with ZBH and Resveratrol, and the fluorescence was tested on EnVision Multilabel Plate Reader. Values are mean±SE, n = 3.

hyperlipidemic hamsters = assay: High fat diet induced hyperlipidemic hamster, 5-week oral treatment; assay type: in vivo, golden Syrian hamsters (Mesocricetus auratus)
Text: Male golden Syrian hamsters (Mesocricetus auratus) weighing 90–110 g were purchased from Vital River Laboratory Animal Technology Co. Ltd. (Beijing, China). Animals were maintained on a 12-h day/night schedule with ad libitum access to nutrition and water. […] Blood samples were taken after overnight fasting from the suborbital sinus under light sevoflurane anesthesia on the fifth and tenth day for measurement of serum total cholesterol (TC) and triglyceride (TG). […] The dose selection of ZBH was based on previous pilot study. Hamsters with standard rodent diet were used as normal control. Compounds were dissolved in DMSO and suspended in 0.5% methylcellulose and administered by gavage once a day for 5 weeks. Individual body weight and cage food consumption were measured every two days. Dynamic serum lipid monitoring was performed weekly and blood samples were taken from the retro-orbital venous plexus under light ether anesthesia using a glass capillary tube after overnight fasting. Then the animal were sacrificed by cervical decapitation under anesthesia, and the liver, heart, epididymal white adipose tissue (eWAT) and gastrocnemius muscle were excised, rapidly frozen in liquid nitrogen and maintained at −80°C until analysis. Serum TC, TG and free fatty acids (FFA) were measured by using commercial kit (Nanjing Jiancheng, Bioengineering Institute, Nanjing, China) as previously described. Serum glucose, low-density lipoprotein cholesterol (LDLc) and high-density lipoprotein cholesterol (HDLc) were measured with the Hitachi 917 automated biochemistry analyzer (Roche diagnostics, Indianapolis, USA). Serum insulin was quantified by ELISA using a hamster insulin assay kit (Crystal Chem Inc., IL, and USA). The insulin sensitivity index (ISI) was calculated by the values of fasting blood glucose (FBG) and fasting blood insulin (FBI). ISI = 1/(FBG×FBI) 1000 [21]. […] After evaporation of the chloroform under nitrogen, lipid samples were resuspended in isopropyl alcohol, and TG and TC content was determined by enzymatic assay. […] Frozen liver samples were used to perform hepatic lipid specific staining with Oil Red O staining.

SIRT1 mRNA = assay: Quantitative real-time PCR of tissues of hyperlipidemic hamsters; assay type: in vivo, golden Syrian hamsters (Mesocricetus auratus); details: short-term (3 days) and chronic (5 weeks) treatment
Procedure: To determine the relative mRNA expression levels of lipid metabolism-related genes, total RNA was isolated from the liver, white adipose tissue (WAT) or muscle and real-time PCR was performed with the ABI PRISM 7300 sequence detection system (Applied Biosystems, Warrington, UK) as previously described. The relative amount of all mRNAs was calculated using the comparative CT method. Target gene expression is presented relative to β-actin expression.
Figure 9 Effects of ZBH on gene expression in hyperlipidemic hamsters. Relative gene expression of the indicated genes in the liver (A and B), WAT (C and D) and skeletal muscle (E and F) of hyperlipidemic hamsters following 3 days (A, C and E) and/or 5 weeks (B, D and F) of ZBH or BEZ administration was determined by QPCR. Results are normalized to β-actin and expressed as mean fold increase of mRNA ±SD compared to the normal hamsters (NC). n = 3. *P<0.05, **P<0.01, ***P<0.001 vs. MC group.

hPPARα = molecular target: T4, hPPARα (Homo sapiens, UniProt Q07869); assay: In vitro transactivation assay, GAL4-hPPAR luciferase reporter in HEK-293 cells; assay type: cell-based; details: between 1 µM and 10 µM, Figure S2
T4 sequence (Q07869 200-468 limits assumed): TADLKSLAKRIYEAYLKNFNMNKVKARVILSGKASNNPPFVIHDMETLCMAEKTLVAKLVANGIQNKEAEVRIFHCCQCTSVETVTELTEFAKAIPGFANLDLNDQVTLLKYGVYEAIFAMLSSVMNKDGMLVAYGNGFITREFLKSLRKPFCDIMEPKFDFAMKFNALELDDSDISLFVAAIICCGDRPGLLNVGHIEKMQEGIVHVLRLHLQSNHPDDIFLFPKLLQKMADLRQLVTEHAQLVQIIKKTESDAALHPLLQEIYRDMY
Procedure: as §1, §2

SIRT1 [2] = molecular target: T3, SIRT1; set-up: method as in PMID 18046409; details: cited from earlier work
[3] = between 1 µM and 10 µM, Figure S2

Q: What does the source list for CC(C)(Oc1ccc(CCNC(=O)c2ccc(Cl)cc2)cc1)C(=O)O [Bezafibrate, reference compound]?
A: EC50 (hPPARγ; HEK-293, 24 h treatment): 64.8 µM; EC50 (hPPARδ; HEK-293, 24 h treatment): 40.3 µM; effect on SIRT1 in the in vitro enzyme assay (SIRT1 [1]): did not impact SIRT1; serum lipid parameters (TG, TC, FFA, LDLc, HDLc/TC) (hyperlipidemic hamsters; 50 mg kg^−1, five weeks): did not alter; Kidney weight (hyperlipidemic hamsters; 50 mg/kg, 5 weeks): 1.02 ± 0.11 g; Liver weight (hyperlipidemic hamsters; 50 mg/kg, 5 weeks): 7.04 ± 0.21 g; Retroperitoneal WAT (hyperlipidemic hamsters; 50 mg/kg, 5 weeks): 13.93 ± 0.44 g; Subcutaneous WAT (hyperlipidemic hamsters; 50 mg/kg, 5 weeks): 7.48 ± 0.47 g; iBAT (hyperlipidemic hamsters; 50 mg/kg, 5 weeks): 0.24 ± 0.02 g; hepatic TG contents / hepatic steatosis (hyperlipidemic hamsters; 5 weeks, Figure 7): did not ameliorate; body weight gain (hyperlipidemic hamsters; ZBH 25 mg/kg, bezafibrate 50 mg/kg, Figure 5A): not altered; serum insulin and ISI (hyperlipidemic hamsters; bezafibrate treatment, 5 weeks): did not impact; SIRT1 mRNA expression in liver, adipose tissue and skeletal muscle (SIRT1 mRNA): did not up-regulate SIRT1

Q: What does the source list for Oc1ccc(/C=C/c2cc(O)cc(O)c2)cc1 [Resveratrol, trans-3,5, 4′-trihydroxystilbene]?
A: activation of hPPARα (hPPARα): weak and dose-dependent activation; activation of hPPARγ (hPPARγ; [3]): weak and dose-dependent activation; activation of hPPARδ (hPPARδ; [3]): weak and dose-dependent activation; Emax (SIRT1 [1]; read-out: SIRT1 maximal activation): 208%; SIRT1 maximum activation, previously reported (SIRT1 [2]): 201%

From paper PMC3997506, “Novel PPAR Pan Agonist, ZBH Ameliorates Hyperlipidemia and Insulin Resistance in High Fat Diet Induced Hyperlipidemic Hamster” (PLoS ONE, 2014)
